Results on 1 compound are retold here after ChEMBL document CHEMBL5321270, “Discovery of Pyrazolone Carbothioamide Derivatives as Inhibitors of the Pdr1-KIX Interaction for Combinational Treatment of Azole-Resistant Candidiasis” (J Med Chem, 2023).

The test system of series [1] is Aspergillus fumigatus. Nature of the series: Antifungal activity against Aspergillus fumigatus 7544 assessed as fungal growth inhibition incubated for 48 hrs by microplate reader assay. It counts as functional.
The test system of series [2] is [Candida] auris. As to the kind of experiment: Antifungal activity against Candida auris 0030 assessed as fungal growth inhibition incubated for 48 hrs by microplate reader assay. It counts as functional. The following applies: Candidozyma auris.
For series [3], the system named is Nakaseomyces glabratus. Nature of the series: Synergistic antifungal activity against fluconazole-resistant Candida glabrata 0161 assessed as inhibition of fungal biofilm formation at 1 ug/ml incubated for 24 hrs in presence of fluconazole by XXT reduction menadione assay. It is filed as functional.
Series [4] relates to Nakaseomyces glabratus. Nature of the series: Antifungal activity against FLC-resistant Candida glabrata 0161 infected in cyclophosphamide immunosuppressed ICR mouse model assessed as inhibition of fungal growth in kidney at ip administration for 5 days. It is filed as functional, organism-based. The note with it: time 5.0 day.
The test system of series [5] is Cryptococcus neoformans. As to the kind of experiment: Antifungal activity against Cryptococcus neoformans H99 assessed as fungal growth inhibition incubated for 48 hrs by microplate reader assay. It is filed as functional.
Series [6] can be described thus: Tmax in ICR mouse at 10 mg/kg,po measured upto 24 hrs by LC-MS/MS analysis. It is filed as ADME, organism-based. The note with it: in vivo.
Series [7] in a line: Cmax in ICR mouse at 2 mg/kg,iv measured upto 24 hrs by LC-MS/MS analysis. It is filed as ADME, organism-based. More on the design: dose 2 mg/kg, time < 24 hrs, route iv. The following applies: in vivo.
Series [8] is described as follows: Inhibition of fluorescent probe FITC tagged PDR1-KIX domain (unknown origin) protein-protein interaction assessed as inhibition constant incubated for 2 hrs by fluorescence polarization binding assay. For orientation: Polarisation of emitted light reports the rotation of a fluorescent probe.
In series [9] the test system is Candida tropicalis. As to the kind of experiment: Antifungal activity against Candida tropicalis 10186 assessed as fungal growth inhibition incubated for 48 hrs by microplate reader assay. It counts as functional.
The subject of series [10] is Nakaseomyces glabratus. Nature of the series: Antifungal activity against fluconazole-resistant Candida glabrata 8535 assessed as fungal growth inhibition incubated for 48 hrs by microplate reader assay. It is filed as functional.
Series [11] is described as follows: Cmax in ICR mouse at 10 mg/kg,po measured upto 24 hrs by LC-MS/MS analysis. It is filed as ADME, organism-based. More on the design: dose 10 mg/kg, time < 24 hrs, route po. The note with it: in vivo.
For series [12], the system named is Trichophyton rubrum. As to the kind of experiment: Antifungal activity against Trichophyton rubrum assessed as fungal growth inhibition incubated for 48 hrs by microplate reader assay. It is filed as functional.
Series [13] relates to Nakaseomyces glabratus. As to the kind of experiment: Synergistic antifungal activity against FLC-resistant Candida glabrata 0161 infected in cyclophosphamide immunosuppressed ICR mouse model assessed as inhibition of fungal growth in kidney at 5 mg/kg,ip administrated in presence of fluconazole for 5 days. It is filed as functional, organism-based. The following applies: time 5.0 day.

Converted amounts (≈) assume the structure as drawn. The source made the active and inactive calls. The rule behind the calls is not given here.

A word on the MIC: it is the lowest concentration found to suppress growth. Broadly, the inhibition is the change of the read-out against control, counted positive when it falls. By Tmax is commonly meant the time at which the peak concentration occurs. One may read the Cmax as the peak of the concentration-time curve. For orientation: Ki means the dissociation constant of the complex between target and ligand, obtained from inhibition or displacement. Take `Nc1cc(=O)n(C(=S)Nc2ccc3c(c2)CCC3)[nH]1`: the MIC stood at 16 µg/mL (≈ 58.3 µM) in series [1]; 2 µg/mL (≈ 7.29 µM) in series [2]; 0.063 µg/mL (≈ 0.23 µM) in series [5]; 4 µg/mL (≈ 14.6 µM) in [9]; 0.25 µg/mL (≈ 0.911 µM) in series [10]; 1 µg/mL (≈ 3.64 µM) in [12]. In addition, in series [3], the inhibition at 1 µg/mL came to 33%. The Activity entry in series [4] is “Dose-Dependent Effect”. Further, the time of peak concentration (Tmax) in series [6] stood at 15 min. In addition, the Cmax in [7] stood at 1520 ng/mL; in series [11], 875 ng/mL. Further, the Ki in series [8] stood at 11.7 µM. Further, in series [13], the result was Active.
